Measured values published in US10246786B2, “Renewable bioelectronic interface for electrobiocatalytic reactor” (priority 2009, dated 2019).

Experiments:
[1] = tested on: Mannitol dehydrogenase from Thermotoga maritima (TmMtDH); assay: Cyclic voltammetry of the Gly-TBO-PEI-NADH-TmMtDH-modified electrode with sugar substrates (calibration plot, saturation current, turnover); format: biochemical; conditions: substrate tested on Gly-TBO-PEI-NADH-TmMtDH-modified electrode; 100 mM PBS pH 6.0, 60° C.
Protocol: Cyclic voltammetric experiments were conducted by sweeping the potential of the working electrode between 200 mV and −600 mV at a scan rate of 100 mV s^−1, causing fructose in the vicinity of the electrode to be reduced to mannitol in the […] direction and mannitol to be oxidized to fructose in the reverse direction. All electrochemical measurements were made in 100 mM PBS (pH 6.0) at 60° C. using an electrode with a controlled surface area of 0.07 cm^2. The slope of the calibration plot, which depicts peak current vs. concentration, is a measure of the biosensor's sensitivity. The maximum turnover rate (TRmax), which corresponds to the number of fructose molecules reduced per TmMtDH molecule per second, was calculated using Eq. 6 (Eisenwiener and Schulz, 1969):
[formula] where the background current (I0) and saturation current (Icat^sat) are given by the y-intercept of the calibration curve and the plateau current at a given concentration, respectively. Electrochemical Impedance Spectroscopy
The slope of the calibration curve (0.70±0.01 μA) mM^−1 cm^−2) is a measure of the biosensor's sensitivity. At higher concentrations, the anodic current reached a saturation value (Icat^sat=740.9±11.6 μA cm^−2). This value was used to calculate a TRmax, which represents the number of molecules of fructose reduction per TmMtDH molecule per second, of 57.5±2.8 s^−1, using Eq. 6 (Eisenwiener and Schulz, 1969).
The selectivity of the Gly-TBO-PEI-NADH-TmMtDH-modified electrode was examined by testing alternative substrates.

[2] = carboxylic acid group; cited from earlier work

SMILES	Icat^sat [1] [μA cm^−2]	Sensitivity [1] [μA mM^−1 cm^−2]	pKa [2]
OC1COC(O)C(O)C1O (centres unmarked) [Arbinose, arbinose]	542.8 ± 9.1	0.3 ± 0.0	–
NCC(=O)O [Gly, Glycine]	–	–	~4.3
O=C(O)CCS [MPA]	–	–	~4.3

More lines, main results first:

Icat^sat [1] [μA cm^−2]	Sensitivity [1] [μA mM^−1 cm^−2]	SMILES	pKa [2]
748.2 ± 11.7	10.1 ± 0.2	O=C(CO)[C@@H](O)[C@H](O)[C@H](O)CO [Fructose, D-fructose]	–
562.4 ± 1.4	0.4 ± 0.0	O=C(CO)[C@H](O)[C@@H](O)[C@H](O)CO [Sorbose, sorbose]	–
